US10662203B2, “Pyrido[2,3-b]indole compounds for the treatment and prophylaxis of bacterial infection” (Hoffmann-La Roche Inc., priority 2017, dated 2020)
≈ marks a conversion by molar mass, not a printed value. Where two headings read alike, the source gives them in different places.

Key:
[1] = tested on: multiple species and strains; assay: Minimal inhibitory concentration (MIC) and MIC90 determination, broth microdilution (CLSI M07-A10); settings: S9: P. aeruginosa ATCC BAA-2113
Procedure: Minimal Inhibitory Concentration (MIC) and MIC90 Determination:
The MIC of antibacterial compounds against multiple species and strains was determined using the broth microdilution method according to M07-A10 Clinical and Laboratory Standards Institute (CLSI) guidelines (CLSI (2015) Methods for dilution antimicrobial susceptibility tests for bacteria that grow aerobically; Approved Standard, Tenth Edition. CLSI Document M7-A10 (ISBN 1-56238-987-4). Wayne, Pa.: Clinical and Laboratory Standards Institute, 19087, USA.). In short, bacterial strain preparation was performed on D1 and D2. […] 5-10 well-isolated colonies of similar morphology were selected and re-streaked onto fresh agar plates using sterile loops and incubated for 20-24 hr at 35±2° C. Bacterial strains were subcultured two times to ensure fresh inoculums for MIC screening. […] Alternatively, 1-2 colonies were transferred into 500 μL of saline and OD600 was adjusted to ˜0.1 using an OD meter. Bacterial inoculum was diluted by 1:280 for Gram-positive strains and 1:400 for Gram-negative strains into corresponding medium broth (CAMHB, CAMHB+3% lysed horse blood, HTM) (e.g. 35.6 μL of inoculum into 10 mL of CAMHB or 25 μL of inoculum into 10 mL of CAMHB). […] Compound stock concentration=[(highest testing concentration)×100 μL/2 μL] (e.g. if the required highest testing concentration is 64 μg/mL in assay plates, stock concentration=64 μg/mL×100 μL/2 μL=3.2 mg/mL). […] of each well was transferred in a new MTP, which served as the test plate by subsequent inoculation. The bacterial suspension prepared above is dispensed at 98 μL/well within 15 minutes after preparation. Negative controls (lack of bacterial cells) and growth control wells (lack of compound) were included in all plates. MTPs were incubated for 18-24 hours at 35±2° C. in ambient air. The MIC was recorded and CFUs were calculated on Day 4. The assay plate was placed on the top of MIC reader, and the magnification mirror was adjusted to read each wells, recording growth status as raw data. Photo images of each assay plates were recorded using Q Count 530 (Spiral Biotech). The MIC value of each compound, expressed as […], was determined as the lowest concentration required for complete growth inhibition (no visible growth).

[2] = Single dose PK study (SDPK) in female CD-1 mouse; type: in vivo; settings: MOUSE IV; for clearance: female, CD-1, plasma, read-out: CL total
Procedure: Single Dose PK Study (SDPK) in Female CD-1 Mouse: The single dose PK in female CD-1 mouse was performed to assess compound's pharmacokinetic properties. One group of animals were dosed via bolus intravenous (IV) of the respective compound. Blood samples (approximately 30 μL) were collected via saphenous vein at 5 mins, 15 min, 30 min, 1 hr, 2 hr, 4 hr and 7 hr. For last time point (24 hr), samples were collected via cardiac puncture while the mouse was under anesthesia. Blood samples were placed into tubes containing EDTA-K2 anticoagulant (2 μL of 0.5M per tube) and centrifuged at 3000 rpm for 10 minutes at 4° C. within half an hour to separate plasma from the samples. Following centrifugation, plasma samples were stored in polypropylene tubes, quick frozen over dry ice and kept at −70±10° C. until LC/MS/MS analysis. The pharmacokinetic parameters were calculated using non-compartmental module of WinNonlin® Professional 6.4.

[3] = Lyophilisation solubility assay (LYSA); type: physicochemical; settings: phosphate buffer, pH 6.5, aqueous buffer, thermodynamic from solid, 0.05 M phosphate buffer, HPLC-UV
Procedure, shortened: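 Duplicate samples made from 10 mM DMSO stock. DMSO evaporated and the residue taken up in 0.05 M phosphate buffer, pH 6.5, stirred 1 h and shaken 2 h, then left overnight. Filtrate and its 1/10 dilution quantified by HPLC-UV.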

A. baumannii (ATCC17978) = assay: 50% growth inhibitory concentration (IC50) determination assay; type: cell-based; settings: Acinetobacter baumannii, ATCC17978, A. baumannii ATCC17978; Iso-Sensitest broth; 0.098 = detection limit
Procedure, shortened: (§1)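 Read-out is optical density at λ=600 nm, taken every 20 minutes across a 16 h time course. Bacteria at ~5×10^5 CFU/mL in Iso-Sensitest broth are exposed to two-fold dilutions of compound (50 to 0.097 μM final) at 35±2° C.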

[4] = tested on: K. pneumoniae (ATCC10031); assay: as above; type: cell-based; settings: Klebsiella pneumoniae, Iso-Sensitest broth, 0.098 = detection limit
Procedure, shortened: as §1

S. aureus (ATCC29213) = assay: as above; type: cell-based; settings: Staphylococcus aureus, Iso-Sensitest broth, 0.098 = detection limit
Procedure, shortened: as §1

[5] = Cytotoxicity assay (HepG2, CellTiter-Blue cell viability); type: cell-based; settings: human; HepG2 cells, 3 days treatment; "*": the detection limit; read-out: CC50
Procedure, shortened: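 HepG2 cells (1.2×10^4 per well) exposed to compounds for 3 days; viability then read by CellTiter-Blue fluorescence after 3 h at 37 °C. CC50 from four-parameter logistic fit.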

SMILES | AUC total ([2]; 1.0 mg/kg-Solution) [ng·h/mL] | clearance ([2]; 1.0 mg/kg-Solution) [mL/min/kg] | solubility thermodynamic [3] [µg/mL] | IC50 (A. baumannii (ATCC17978)) [µM] | IC50 [4] [µM] | IC50 (S. aureus (ATCC29213)) [µM] | AUC total ([2]; 0.7 mg/kg-Solution) [ng·h/mL] | clearance ([2]; 0.7 mg/kg-Solution) [mL/min/kg] | MIC S9 [1] | CC50 at 3 days [5] [nM]
CNc1cc(F)c(C#N)c2c1[nH]c1ncc(-c3cnc4c(c3)c(=O)c(C(=O)O)cn4C)c(N3CC[C@H]4CN(C)C[C@H]43)c12 [Example 1.298] | 274.0 | 62.7 | – | – | – | – | – | – | 17.016 | –
CNc1cc(F)c(F)c2c1[nH]c1ncc(-c3cnc4c(c3)c(=O)c(C(=O)O)cn4C)c(N3CCC(O)CC3)c12 [Example 1.43] | 235.1 | 66.3 | – | 0.663 | < 0.098 | < 0.098 | – | – | – | 39300
CNc1cc(F)c(F)c2c1[nH]c1ncc(-c3cnc4c(c3)c(=O)c(C(=O)O)cn4C)c(N3CC[C@H]4CCN(C)C4C3)c12 (some centres unmarked) [Example 1.196] | 177.4 | 98.4 | 25 (≈ 43.6 µM) | 0.102 | < 0.098 | < 0.098 | – | – | – | –
CNc1cc(F)c(F)c2c1[nH]c1ncc(-c3cnc4c(c3)c(=O)c(C(=O)O)cn4NC)c(N3CC[C@H]4CN(C)CC43)c12 (some centres unmarked) [Example 1.189] | – | – | 255 (≈ 444 µM) | 0.095 | < 0.098 | < 0.098 | – | – | 4.304 | 41200
CNc1cc(F)c(F)c2c1[nH]c1ncc(-c3cnc4c(c3)c(=O)c(C(=O)O)cn4NC)c(N3CC[C@H]4CN(C)C[C@H]43)c12 [Example 3.01A, 6-[5,6-difluoro-8-(methylamino)-4-[(3aS,6aS)-5-methyl-2,3,3a,4,6,6a-hexahydropyrrolo[2,3-c]pyrrol-1-yl]-9H-pyrido[2,3-b]indol-3-yl]-1-(methylamino)-4-oxo-1,8-naphthyridine-3-carboxylic acid] | 195.4 | 81.9 | 264 (≈ 459 µM) | 0.034 | < 0.098 | < 0.098 | – | – | 1.796 | 54100
CNc1cc(F)c(F)c2c1[nH]c1ncc(-c3cnc4c(c3)c(=O)c(C(=O)O)cn4C)c(N3C[C@H]4CCN(C)[C@H]4C3)c12 [Example 3.08A] | 190.5 | 86.7 | 119 (≈ 213 µM) | 0.049 | < 0.098 | < 0.098 | – | – | – | –
CNc1cc(F)c(F)c2c1[nH]c1ncc(-c3cnc4c(c3)c(=O)c(C(=O)O)cn4NC)c(N3C[C@H]4CCN(C)[C@H]4C3)c12 [Example 3.07A] | 214.0 | 77.4 | 20 (≈ 34.8 µM) | 0.076 | < 0.098 | < 0.098 | – | – | – | > 100000
CNc1cc(F)c(F)c2c1[nH]c1ncc(-c3cnc4c(c3)c(=O)c(C(=O)O)cn4NC)c(N3CC[C@@H]4CN(C)C[C@@H]43)c12 [Example 3.01B, 6-[5,6-difluoro-8-(methylamino)-4-[(3aR,6aR)-5-methyl-2,3,3a,4,6,6a-hexahydropyrrolo[2,3-c]pyrrol-1-yl]-9H-pyrido[2,3-b]indol-3-yl]-1-(methylamino)-4-oxo-1,8-naphthyridine-3-carboxylic acid] | 156.1 | 105 | 265 (≈ 461 µM) | 0.56 | < 0.098 | 0.168 | – | – | – | 39400
CNc1cc(F)c(F)c2c1[nH]c1ncc(-c3cnc4c(c3)c(=O)c(C(=O)O)cn4CC(N)C(C)C)c(N3CCOCC3)c12 (centres unmarked) [Example 1.57] | – | – | – | 0.198 | – | < 0.098 | 190.8 | 84.6 | – | 35900
CNc1cc(F)c(C#N)c2c1[nH]c1ncc(-c3cnc4c(c3)c(=O)c(C(=O)O)cn4NC)c(N3CC[C@H]4CN(C)CC43)c12 (some centres unmarked) [Example 1.275] | – | – | – | 0.281 | – | – | – | – | 4.348 | –
CNc1cc(F)c(C#N)c2c1[nH]c1ncc(-c3cnc4c(c3)c(=O)c(C(=O)O)cn4C)c(N3CC[C@H]4CN(C)CC43)c12 (some centres unmarked) [Example 1.274] | – | – | 118 (≈ 208 µM) | 0.117 | – | – | – | – | 8.508 | –
CNc1cc(F)c(F)c2c1[nH]c1ncc(-c3cnc4c(c3)c(=O)c(C(=O)O)cn4C)c(N3CC4C(N(C)C)CO[C@@H]4C3)c12 (some centres unmarked) [Example 1.286] | – | – | – | 0.143 | – | – | – | – | 3.973 | –
CNc1cc(F)cc2c1[nH]c1ncc(-c3cnc4c(c3)c(=O)c(C(=O)O)cn4NC)c(N3CC[C@H]4CN(C)CC43)c12 (some centres unmarked) [Example 1.86] | 194.1 | 86.5 | > 805 | 0.175 | < 0.098 | 0.15 | – | – | – | 43400
CNc1cc(F)c(F)c2c1[nH]c1ncc(-c3cnc4c(c3)c(=O)c(C(=O)O)cn4C)c(N3CCC[C@H]3CN(C)C)c12 [Example 1.14] | – | – | 407 (≈ 725 µM) | 0.154 | < 0.098 | < 0.098 | – | – | 7.02 | 29100

Further lines, with some results ahead:

AUC total ([2]; 1.0 mg/kg-Solution) [ng·h/mL] | clearance ([2]; 1.0 mg/kg-Solution) [mL/min/kg] | solubility thermodynamic [3] [µg/mL] | IC50 (A. baumannii (ATCC17978)) [µM] | IC50 [4] [µM] | IC50 (S. aureus (ATCC29213)) [µM] | AUC total ([2]; 0.7 mg/kg-Solution) [ng·h/mL] | clearance ([2]; 0.7 mg/kg-Solution) [mL/min/kg] | SMILES | MIC S9 [1] | CC50 at 3 days [5] [nM]
235.0 | 69.6 | 58 (≈ 104 µM) | 0.105 | < 0.098 | < 0.098 | – | – | CNc1cc(F)c(F)c2c1[nH]c1ncc(-c3cnc4c(c3)c(=O)c(C(=O)O)cn4C)c(N3CC4[C@H](CCN4C)C3)c12 (some centres unmarked) [Example 1.192] | – | –
211.3 | 83.5 | – | 0.764 | < 0.098 | < 0.098 | – | – | CNc1cc(F)cc2c1[nH]c1ncc(-c3cnc4c(c3)c(=O)c(C(=O)O)cn4CC(C)O)c(N3CCOCC3)c12 (centres unmarked) [Example 1.53] | – | > 100000
188.3 | 85.7 | 73 (≈ 127 µM) | 0.203 | < 0.098 | 0.101 | – | – | CNc1cc(F)c(F)c2c1[nH]c1ncc(-c3cnc4c(c3)c(=O)c(C(=O)O)cn4C)c(N3CC(N(C)C)C4(CC4)C3)c12 (centres unmarked) [Example 1.207] | – | –
165.9 | 98.7 | – | 0.334 | – | 0.101 | – | – | CNc1c(F)c(F)cc2c1[nH]c1ncc(-c3cnc4c(c3)c(=O)c(C(=O)O)cn4C3CCNC3)c(N(C)C)c12 (centres unmarked) [Example 1.55] | – | 49800
196.3 | 84.3 | – | 0.095 | < 0.098 | < 0.098 | – | – | CNc1cc(F)c(F)c2c1[nH]c1ncc(-c3cnc4c(c3)c(=O)c(C(=O)O)cn4C)c(N3CC4[C@@H](C3)OCCN4C)c12 (some centres unmarked) [Example 1.241] | – | –
305.8 | 57.4 | – | 0.233 | < 0.098 | < 0.098 | – | – | CNc1cc(F)cc2c1[nH]c1ncc(-c3cnc4c(c3)c(=O)c(C(=O)O)cn4NC)c(N3CCOCC3)c12 [Example 1.52] | – | –
